In the supplement of paper PMC11962398:

Key:
[1] = compound: T1, C[C@H]1CNCCN1c1nccc(-c2noc3c2CCC[C@@]32CCCc3sc(N)c(C#N)c32)n1 [BI-2493]; settings: 5 days
Experimental: (§1)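 PRISM pooled barcoded cancer cell line viability screen (Broad Institute) with BI-2493 at 8 doses in threefold dilutions from 0.00457 to 10 µmol/L, 5-day treatment; curves fitted per cell line. IC50 is undefined (placeholder) for resistant lines. AUC is capped at 1, and sensitivity is reported as 1 − AUC.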

[2] = compound: T1, BI-2493; experiment: 1 - AUC of viability dose-response curve (sensitivity) (fraction); higher = more sensitive; settings: 5 days
Experimental: as §1

Row | Test System | IC50 of cell viability [1] [µM] | 1 - AUC of viability dose-response curve [2]
1 | SKNMC_BONE | 7.83 | 0.193
2 | SKNSH_AUTONOMIC_GANGLIA | > 10 | 0.25
3 | SKN_ENDOMETRIUM | 6.7 | 0.101
4 | SKOV3_OVARY | 7.06 | 0.0812
5 | SKPNDW_BONE | 9.05 | 0.0174
6 | SKUT1_SOFT_TISSUE | 4.83 | 0.207
7 | SMSCTR_SOFT_TISSUE | > 10 | 0.0341
8 | SNGM_ENDOMETRIUM | 7.12 | 0.0648
9 | SNU1_STOMACH | 5.53 | 0.102
10 | SNU46_UPPER_AERODIGESTIVE_TRACT | 5.4 | 0.192
11 | SNU61_LARGE_INTESTINE | 0.465 | 0.307
12 | SNU81_LARGE_INTESTINE | 9.39 | 0.129
13 | SNU119_OVARY | 5.65 | 0.162
14 | SNU182_LIVER | > 10 | 0.0527
15 | SNU201_CENTRAL_NERVOUS_SYSTEM | > 10 | 0.0868
16 | SNU213_PANCREAS | 5.63 | 0.106
17 | SNU216_STOMACH | 8.63 | 0.0735
18 | SNU245_BILIARY_TRACT | 0.731 | 0.381
19 | SNU308_BILIARY_TRACT | 8.63 | 0.0812
20 | SNU398_LIVER | 3.55 | 0.176
21 | SNU407_LARGE_INTESTINE | 1.21 | 0.3
22 | SNU410_PANCREAS | 9.47 | 0.0692
23 | SNU423_LIVER | 3.81 | 0.152
24 | SNU449_LIVER | 7.3 | 0.0578

Row | Test System | IC50 of cell viability [1] [µM] | 1 - AUC of viability dose-response curve [2]
25 | SNU466_CENTRAL_NERVOUS_SYSTEM | 2.75 | 0.218
26 | SNU489_CENTRAL_NERVOUS_SYSTEM | 4.14 | 0.103
27 | SNU638_STOMACH | 8.32 | 0.119
28 | SNU668_STOMACH | 6.46 | 0.234
29 | SNU685_ENDOMETRIUM | 9.5 | 0.0102
30 | SNU719_STOMACH | 9.46 | 0.00913
31 | SNU761_LIVER | 2.4 | 0.297
32 | SNU840_OVARY | 7.7 | 0.0623
33 | SNU869_BILIARY_TRACT | 2.14 | 0.279
34 | SNU886_LIVER | 5.03 | 0.211
35 | SNU899_UPPER_AERODIGESTIVE_TRACT | 4.32 | 0.157
36 | SNU1041_UPPER_AERODIGESTIVE_TRACT | 9.15 | 0.019
37 | SNU1066_UPPER_AERODIGESTIVE_TRACT | 6.03 | 0.0923
38 | SNU1076_UPPER_AERODIGESTIVE_TRACT | 3.84 | 0.104
39 | SNU1077_ENDOMETRIUM | 8.81 | 0.0934
40 | SNU1105_CENTRAL_NERVOUS_SYSTEM | 4.12 | 0.157
41 | SNU1196_BILIARY_TRACT | 0.361 | 0.496
42 | SNU1214_UPPER_AERODIGESTIVE_TRACT | 0.175 | 0.482
43 | SNU1544_LARGE_INTESTINE | 2.68 | 0.203
44 | SNU2372_BREAST | 6.37 | 0.0682
45 | SNUC2A_LARGE_INTESTINE | > 10 | 0.0882
46 | SNUC4_LARGE_INTESTINE | 5.72 | 0.162
47 | SQ1_LUNG | 3.68 | 0.153
48 | SR786_HAEMATOPOIETIC_AND_LYMPHOID_TISSUE | 7.44 | 0.0498

Row | Test System | IC50 of cell viability [1] [µM] | 1 - AUC of viability dose-response curve [2]
49 | SSP25_BILIARY_TRACT | 8.5 | 0.11
50 | STM9101_SOFT_TISSUE | > 10 | 0.0387
51 | SUDHL1_HAEMATOPOIETIC_AND_LYMPHOID_TISSUE | 4.67 | 0.14
52 | SUDHL8_HAEMATOPOIETIC_AND_LYMPHOID_TISSUE | 9.1 | 0.0165
53 | SUIT2_PANCREAS | 4.96 | 0.123
54 | SUM149PT_BREAST | 3.94 | 0.168
55 | SUM159PT_BREAST | 7.31 | 0.064
56 | SUPB15_HAEMATOPOIETIC_AND_LYMPHOID_TISSUE | 3.13 | 0.149
57 | SUPT11_HAEMATOPOIETIC_AND_LYMPHOID_TISSUE | 5.2 | 0.0681
58 | SUSA_TESTIS | 1.09 | 0.243
59 | SW13_ADRENAL_CORTEX | 4.77 | 0.0973
60 | SW156_KIDNEY | 9.51 | 0.0358
61 | SW579_THYROID | 3.16 | 0.133
62 | SW620_LARGE_INTESTINE | 1.1 | 0.313
63 | SW626_LARGE_INTESTINE | 4.08 | 0.124
64 | SW756_CERVIX | 5.46 | 0.14
65 | SW780_URINARY_TRACT | 3.46 | 0.22
66 | SW837_LARGE_INTESTINE | 5.95 | 0.0901
67 | SW900_LUNG | 8.99 | 0.115
68 | SW948_LARGE_INTESTINE | 7.49 | 0.167
69 | SW954_CERVIX | 3.72 | 0.117
70 | SW1088_CENTRAL_NERVOUS_SYSTEM | 8.8 | 0.159
71 | SW1116_LARGE_INTESTINE | 2.37 | 0.214
72 | SW1353_BONE | > 10 | 0.032

Row | Test System | IC50 of cell viability [1] [µM] | 1 - AUC of viability dose-response curve [2]
73 | SW1463_LARGE_INTESTINE | 4.74 | 0.177
74 | SW1573_LUNG | 7.72 | 0.108
75 | SW1710_URINARY_TRACT | 7.21 | 0.0685
76 | SW1783_CENTRAL_NERVOUS_SYSTEM | 7.49 | 0.0474
77 | SW1990_PANCREAS | 0.926 | 0.324
78 | T3M5_THYROID | 4.56 | 0.162
79 | T3M10_LUNG | 5.96 | 0.0884
80 | T24_URINARY_TRACT | > 10 | 0.047
81 | T47D_BREAST | 4.07 | 0.0937
82 | TALL1_HAEMATOPOIETIC_AND_LYMPHOID_TISSUE | 6.69 | 0.0755
83 | TANOUE_HAEMATOPOIETIC_AND_LYMPHOID_TISSUE | 9.36 | 0.0128
84 | TASK1_CENTRAL_NERVOUS_SYSTEM | 7.76 | 0.0438
85 | TC32_BONE | 8.86 | 0.0484
86 | TC71_BONE | 9.44 | 0.0115
87 | TC106_BONE | 5.11 | 0.108
88 | TC205_BONE | > 10 | 0.082
89 | TCCPAN2_PANCREAS | 8.86 | 0.0795
90 | TCCSUP_URINARY_TRACT | 9.48 | 0.0247
91 | TE1_OESOPHAGUS | 9.58 | 0.0344
92 | TE4_OESOPHAGUS | 4.83 | 0.0912
93 | TE5_OESOPHAGUS | 9.08 | 0.0423
94 | TE6_OESOPHAGUS | 4.43 | 0.0969
95 | TE8_OESOPHAGUS | > 10 | 0.0526
